Values after ≈ are worked out from the molar mass of the structure shown. Like-named read-outs stand apart in the source and are kept apart here.
What was measured:
[1] = system: T. rubrum, T. mentagrophytes, C. albicans, C. neoformans and A. fumigatus; assay: MIC against the panel of fungi tested; type: cell-based; settings: for fold less active than the corresponding oxaborole: 6-membered oxaborin vs 5-membered oxaborole (23a vs 9a, 23b vs 9b, 24 vs 19b); for fold increase in potency: 5-fluoro compound relative to its R^i = H analog (9b vs 9a, 10b vs 10a), strains tested
Text: MIC, or minimum inhibitory concentration, is the point where compound stops more than 90% of cell growth relative to an untreated control.
(§1) To determine the antifungal activity of these compounds we screened for their minimum inhibitory concentrations (MIC) against the major dermatophytes that cause onychomycosis, T. rubrum and T. mentagrophytes, and against the yeasts and molds C. albicans, C. neoformans and A. fumigatus to test for their broad spectrum activity. The antifungal agent ciclopirox, currently in use for the topical treatment of onychomycosis, was used as a reference.
(§2) All MIC testing against Trichophyton rubrum, Trichophyton mentagrophytes, Candida albicans, Cryptococcus neoformans and Aspergillus fumigatus were determined following the National Committee for Clinical Laboratory Standards (NCCLS) guidelines for antimicrobial testing of yeasts and filamentous fungi.^i,ii
Briefly, compounds were dissolved in DMSO and diluted in sterile water to give a working stock. Two-fold serial dilutions of the test compounds were prepared in 96-well plates. The plates were inoculated with the fungal suspensions to give a final inoculum size of 0.5−2.5×10^3 cells/mL for yeasts or 0.4−5×10^4 CFU/mL for filamentous fungi and then incubated for 24-168 h at 35° C. […] Pfaller M A, Chaturvedi V, Espinel-Ingroff A, Ghannoum M A, Gosey L L, Odds F C, Rex J H, Rinaldi M G, Sheehan D J, Walsh T J, Warnock D W. NCCLS publication M27-A2—Reference Method for Broth Dilution Antifungal Susceptibility Testing of Yeasts; Approved Standard—Second Edition. Wayne, P A: NCCLS; 2002 (Vol. 22, No. 15). • ii. Pfaller M A, Chaturvedi V, Espinel-Ingroff A, Ghannoum M A, Gosey L L, Odds F C, Rex J H, Rinaldi M G, Sheehan D J, Walsh T J, Warnock D W. NCCLS publication M38-A—Reference Method for Broth Dilution Antifungal Susceptibility Testing of Filamentous Fungi; Approved Standard. Wayne, P A: NCCLS; 2002 (Vol. 22, No. 16).

[2] = system: Aspergillus fumigatus; assay: MIC against A. fumigatus (NCCLS broth dilution); type: cell-based; settings: for MIC: Aspergillus fumigatus, read-out: Minimum inhibitory concentration, A. fumigatus
Text: as §1, §2
(§3) Two-fold serial dilutions of the test compounds were prepared in 96-well plates. […] Pfaller M A, Chaturvedi V, Espinel-Ingroff A, Ghannoum M A, Gosey L L, Odds F C, Rex J H, Rinaldi M G, Sheehan D J, Walsh T J, Warnock D W. NCCLS publication M27-A2—Reference Method for Broth Dilution Antifungal Susceptibility Testing of Yeasts; Approved Standard—Second Edition. […] Pfaller M A, Chaturvedi V, Espinel-Ingroff A, Ghannoum M A, Gosey L L, Odds F C, Rex J H, Rinaldi M G, Sheehan D J, Walsh T J, Warnock D W. NCCLS publication M38-A—Reference Method for Broth Dilution Antifungal Susceptibility Testing of Filamentous Fungi; Approved Standard.

[3] = system: Candida albicans; assay: MIC against C. albicans (NCCLS broth dilution); type: cell-based; settings: for MIC: Candida albicans, read-out: Minimum inhibitory concentration, C. albicans
Text: as §1, §2, §3

[4] = system: Trichophyton mentagrophytes; assay: MIC against T. mentagrophytes (NCCLS broth dilution); type: cell-based; settings: for MIC: Trichophyton mentagrophytes, read-out: Minimum inhibitory concentration, T. mentagrophytes
Text: as §1, §2, §3

[5] = system: Cryptococcus neoformans; assay: MIC against C. neoformans (NCCLS broth dilution); type: cell-based; settings: for MIC: Cryptococcus neoformans, read-out: Minimum inhibitory concentration, C. neoformans
Text: as §1, §2, §3

[6] = system: Trichophyton rubrum; assay: MIC against T. rubrum (NCCLS broth dilution); type: cell-based; settings: for MIC: Trichophyton rubrum, read-out: Minimum inhibitory concentration, T. rubrum
Text: as §1, §2, §3

[7] = Penetration of the nail plate; type: in vitro ADME; settings: result in words
[8] = LogP; type: physicochemical
Text: (§4) Further discussion, and assays for testing log P, molecular weight and water solubility are described in U.S. patent application Ser. Nos. 11/357,687 and 11/505,591, which are incorporated herein by reference.

[9] = Plasma protein binding; type: in vitro ADME
[10] = Water solubility; type: physicochemical
Text: as §4

[11] = Table 1, over 90% reduction of growth, 24-168 h at 35° C.
[12] = 24 h, Table 1, over 90% reduction of growth, 24-168 h at 35° C.

## 6-Fluoro-1-phenyl-1,2,3,4-tetrahydro-2,1-benzoxaborine [23a]
[1]
  fold less active than the corresponding oxaborole: approximately 2 fold
[2]; [11]
  Minimum inhibitory concentration, A. fumigatus: 16 µg/mL
[3]; [11]
  Minimum inhibitory concentration, C. albicans: 8 µg/mL
[4]; [11]
  Minimum inhibitory concentration, T. mentagrophytes: 8 µg/mL
[5]; [11]
  Minimum inhibitory concentration, C. neoformans: 16 µg/mL
[6]; [11]
  Minimum inhibitory concentration, T. rubrum: 8 µg/mL

## c1ccc(B2OCc3ccccc32)cc1 [9a, 1,3-Dihydro-1-phenyl-2,1-benzoxaborole]
[1]; all five fungi
  MIC values, range over the strains tested: 4 to 8 µg/mL
[2]; [11]
  MIC: 4 µg/mL (≈ 20.6 µM)
[2]; Table 2, 1-phenyl series (9)
  Minimum inhibitory concentration, A. fumigatus: 4 µg/mL (≈ 20.6 µM)
[3]; [11]
  MIC: 4 µg/mL (≈ 20.6 µM)
[3]; Table 2, 1-phenyl series (9)
  Minimum inhibitory concentration, C. albicans: 4 µg/mL (≈ 20.6 µM)
[4]; Table 2, 1-phenyl series (9)
  Minimum inhibitory concentration, T. mentagrophytes: 4 µg/mL (≈ 20.6 µM)
[4]; [11]
  MIC: 4 µg/mL (≈ 20.6 µM)
[5]; [11]
  MIC: 8 µg/mL (≈ 41.2 µM)
[5]; Table 2, 1-phenyl series (9)
  Minimum inhibitory concentration, C. neoformans: 8 µg/mL (≈ 41.2 µM)
[6]; Table 2, 1-phenyl series (9)
  Minimum inhibitory concentration, T. rubrum: 4 µg/mL (≈ 20.6 µM)
[6]; [11]
  MIC: 4 µg/mL (≈ 20.6 µM)

## Fc1ccc2c(c1)COB2c1ccccc1 [9b, 1,3-Dihydro-5-fluoro-1-phenyl-2,1-benzoxaborole]
other
  melting point: 90 to 99 °C
[1]
  fold increase in potency: 2-8 fold
[2]; [11]
  MIC: 2 µg/mL (≈ 9.43 µM)
[2]; Table 2, 1-phenyl series (9)
  Minimum inhibitory concentration, A. fumigatus: 2 µg/mL (≈ 9.43 µM)
[3]; [11]
  MIC: 0.5 µg/mL (≈ 2.36 µM)
[3]; Table 2, 1-phenyl series (9)
  Minimum inhibitory concentration, C. albicans: 0.5 µg/mL (≈ 2.36 µM)
[4]; Table 2, 1-phenyl series (9)
  Minimum inhibitory concentration, T. mentagrophytes: 2 µg/mL (≈ 9.43 µM)
[4]; [11]
  MIC: 2 µg/mL (≈ 9.43 µM)
[5]; [11]
  MIC: 2 µg/mL (≈ 9.43 µM)
[5]; Table 2, 1-phenyl series (9)
  Minimum inhibitory concentration, C. neoformans: 2 µg/mL (≈ 9.43 µM)
[6]; Table 2, 1-phenyl series (9)
  Minimum inhibitory concentration, T. rubrum: 1 µg/mL (≈ 4.72 µM)
[6]; [11]
  MIC: 1 µg/mL (≈ 4.72 µM)

## Fc1ccc2c(c1)COB2C=Cc1ccccc1 [10b, 1,3-Dihydro-5-fluoro-1-styryl-2,1-benzoxaborole]
other
  melting point: 84 to 86 °C
[1]
  fold increase in potency: 4-8 fold
[2]; [11]
  MIC: 1 µg/mL (≈ 4.2 µM)
[3]; [11]
  MIC: 0.5 µg/mL (≈ 2.1 µM)
[4]; [11]
  MIC: 2 µg/mL (≈ 8.4 µM)
[5]; [11]
  MIC: 0.5 µg/mL (≈ 2.1 µM)
[6]; [11]
  MIC: ≤ 1 µg/mL

## CC1OB(O)c2ccc(F)cc21 (centres unmarked) [19c, 1,3-Dihydro-5-fluoro-1-hydroxy-3-methyl-2,1-benzoxaborolane]
[1]; 3-methyl compound relative to 19b
  fold decrease in activity: 8-32 fold
[2]; [11]
  Minimum inhibitory concentration, A. fumigatus: 16 µg/mL (≈ 96.4 µM)
[3]; [11]
  Minimum inhibitory concentration, C. albicans: 16 µg/mL (≈ 96.4 µM)
[4]; [11]
  Minimum inhibitory concentration, T. mentagrophytes: 16 µg/mL (≈ 96.4 µM)
[5]; [11]
  Minimum inhibitory concentration, C. neoformans: 32 µg/mL (≈ 193 µM)
[6]; [11]
  Minimum inhibitory concentration, T. rubrum: 32 µg/mL (≈ 193 µM)

## c1ccc(B2OCCc3ccccc32)cc1 [23b, 1-Phenyl-1,2,3,4-tetrahydro-2,1-benzoxaborine]
[1]
  fold less active than the corresponding oxaborole: 4-16 fold
[2]; [12]
  MIC: 8 µg/mL (≈ 38.4 µM)
[3]; [12]
  MIC: 8 µg/mL (≈ 38.4 µM)
[4]; [12]
  MIC: 8 µg/mL (≈ 38.4 µM)
[5]; [12]
  MIC: 8 µg/mL (≈ 38.4 µM)
[6]; [12]
  MIC: 8 µg/mL (≈ 38.4 µM)

## Cc1cc(C2CCCCC2)n(O)c(=O)c1 [Ciclopirox, reference compound]
[7]
  penetration of the nail plate: penetrates the nail plate poorly
[2]; [11]
  MIC: 1 µg/mL (≈ 4.82 µM)
[3]; [11]
  MIC: 0.5 µg/mL (≈ 2.41 µM)
[4]; [11]
  MIC: 0.5 µg/mL (≈ 2.41 µM)
[5]; [11]
  MIC: 0.5 µg/mL (≈ 2.41 µM)
[6]; [11]
  MIC: 0.5 µg/mL (≈ 2.41 µM)

## Fc1ccc2c(c1)COB2c1ccccc1 [Compound 3]
[8]; table of b228, read-out: eLogP
  logP: 3.55
[7]
  penetration of the nail plate: penetrates the nail plate poorly

## Fc1ccc2c(c1)COB2c1cccnc1 [compound 15, 3-(1,3-Dihydro-5-fluoro-2,1-benzoxaborol-1-yl)pyridine]
other
  melting point: 210 to 212 °C
[1]; T. rubrum and T. mentagrophytes, relative to 9b
  fold decrease in activity against the dermatophytes: 16-64 fold
[1]; relative to 9b
  fold reduction in activity against C. neoformans and A. fumigatus: 4 fold
[2]; [11]
  MIC: 16 µg/mL (≈ 75.1 µM)
[3]; [11]
  MIC: 4 µg/mL (≈ 18.8 µM)
[3]; relative to 9b, in words
  change in activity against C. albicans: no change in activity
[4]; [11]
  MIC: 32 µg/mL (≈ 150 µM)
[5]; [11]
  MIC: 16 µg/mL (≈ 75.1 µM)
[6]; [11]
  MIC: 16 µg/mL (≈ 75.1 µM)

## OB1OCCc2cc(F)ccc21 [compound 24, 6-Fluoro-1-hydroxy-1,2,3,4-tetrahydro-2,1-benzoxaborine]
[1]
  fold less active than the corresponding oxaborole: 32-256 fold
[2]; [11]
  MIC: 32 µg/mL (≈ 193 µM)
[3]; [11]
  MIC: 64 µg/mL (≈ 386 µM)
[4]; [11]
  MIC: 32 µg/mL (≈ 193 µM)
[5]; [11]
  MIC: > 64 µg/mL
[6]; [11]
  MIC: 32 µg/mL (≈ 193 µM)

## OB1OCc2cc(F)ccc21 [drawing 88]
[8]; read-out: LogP
  logP: 1.9
[9]
  fraction unbound: 0.34
[10]
  solubility: > 100 µg/mL

## OB1OCc2cc(Cl)ccc21 [drawing 89]
[8]; read-out: LogP
  logP: 2.3
[9]
  fraction unbound: 0.17
[10]
  solubility: > 100 µg/mL

Reference: US8106031B2, “Hydrolytically-resistant boron-containing therapeutics and methods of use” (Anacor Pharmaceuticals, Inc., priority 2006, dated 2012)
